Test results from patent publication US8445674B2, “Heterocyclyl compounds” (Hoffmann-La Roche Inc, priority 2009, dated 2013).
pIC50: −log10 of the molar value.

target: T1, human chemokine receptor 2 isoform B (Homo sapiens, UniProt P41597); test: Calcium mobilization assay (FLIPR, antagonist activity against MCP-1); assay type: cell-based; details: Ca mobilisation assay, CHOK1-CCR2B-A5 cells, inhibition of calcium increase induced by 20 nM MCP-1
T1 construct: host or cells: CHOK1-CCR2B-A5 cells (CHO-K1)
T1 sequence (P41597 1-360 isoform P41597-2): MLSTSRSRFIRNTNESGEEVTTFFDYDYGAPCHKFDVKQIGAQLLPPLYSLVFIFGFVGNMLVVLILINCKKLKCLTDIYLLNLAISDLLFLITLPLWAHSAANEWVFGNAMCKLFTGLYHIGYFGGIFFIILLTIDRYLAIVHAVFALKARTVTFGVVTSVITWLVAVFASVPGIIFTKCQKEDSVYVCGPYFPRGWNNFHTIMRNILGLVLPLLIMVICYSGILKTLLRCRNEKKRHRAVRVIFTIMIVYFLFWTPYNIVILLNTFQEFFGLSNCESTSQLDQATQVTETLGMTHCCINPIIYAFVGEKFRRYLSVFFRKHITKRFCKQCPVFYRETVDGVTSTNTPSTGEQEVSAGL
Description: Calcium Mobilization Assay
CHOK1-CCR2B-A5 cells (from Euroscreen) stably overexpressing the human chemokine receptor 2 isoform B were cultured in Nutrient Hams F12 medium supplemented with 5% FBS, 100 U/ml penicillin, 100 μg/ml streptomycin, 400 μg/ml G418 and 5 μg/ml puromycin.
For the assay cells were grown overnight in 384-well black clear flat bottom polystyrene plates (Costar) at 37° C. at 5% CO2. After washing with DMEM, 20 mM Hepes, 2.5 mM probenecid, 0.1% BSA (DMEM assay buffer) cells were loaded with 4 μM Fluo-4 in the same DMEM assay buffer for 2 hours at 30° C. Excess dye was removed and cells were washed with DMEM assay buffer. 384-well compound plates were prepared with DMEM assay buffer/0.5% DMSO with or without various concentrations of test compounds. Usually compounds were tested for agonist and antagonist activity.
Test compounds were added to the assay plate and agonist activity was monitored as fluorescence for 80 seconds with a FLIPR (488 nm excitation; 510-570 nm emission; Molecular Devices). After 20-30 min. of incubation at 30° C., 20 nM MCP-1 (R&D; Roche) was added and fluorescence was monitored again for 80 seconds. Increases in intracellular calcium are reported as maximum fluorescence after agonist exposure minus basal fluorescence before exposure. Antagonist activity is indicated as inhibitor concentration required for 50% inhibition of specific calcium increases.

| Compound | pIC50 |
| --- | --- |
| O=C1CCN(C(=O)Nc2ccc(Cl)c(C(F)(F)F)c2)CCN1CCCC(=O)N1CCC2(CC2)[C@H](O)C1 [Example 118, 4-[4-((S)-4-Hydroxy-6-aza-spiro[2.5]oct-6-yl)-4-oxo-butyl]-5-oxo-[1,4] diazepane-1-carboxylic acid (4-chloro-3-trifluoromethyl-phenyl)-amide] | 7.29 |
| C[C@H]1C(=O)N(CCC(F)C(=O)N2CCC3(CC3)[C@H](O)C2)CCN1C(=O)Nc1ccc(C(F)(F)F)c(Cl)c1 (stereo partly drawn) [Example 136, (S)-4-[(R,S)-3-Fluoro-4-((S)-4-hydroxy-6-aza-spiro[2.5]oct-6-yl)-4-oxo-butyl]-2-methyl-3-oxo-piperazine-1-carboxylic acid (3-chloro-4-trifluoromethyl-phenyl)-amide] | 8.33 |
| O=C(/C=C/c1ccc(Cl)c(Cl)c1)N1CCC(=O)N(CCC(=O)N2CCCCC2CO)CC1 (racemic) [Example 67, (rac)-1-[(E)-3-(3,4-Dichloro-phenyl)-acryloyl]-4-[3-(2-hydroxymethyl-piperidin-1-yl)-3-oxo-propyl]-[1,4]diazepan-5-one] | 5.79 |
| C[C@H]1C(=O)N(CCC(F)C(=O)N2CCC3(CC3)[C@H](O)C2)CCN1C(=O)Nc1ccc(C(F)(F)F)c(Cl)c1 (single isomer, unassigned) [Example 137, (S)-4-[(R or S)-3-fluoro-4-((S)-4-hydroxy-6-aza-spiro[2.5]oct-6-yl)-4-oxo-butyl]-2-methyl-3-oxo-piperazine-1-carboxylic acid (3-chloro-4-trifluoromethyl-phenyl)-amide] | 7.98 |
| NC(=O)C1CCN(C(=O)CCN2CCN(C(=O)/C=C/c3ccc(Cl)c(Cl)c3)CCC2=O)CC1 [Example 94, 1-(3-{4-[(E)-3-(3,4-Dichloro-phenyl)-acryloyl]-7-oxo-[1,4]diazepan-1-yl}-propionyl)-piperidine-4-carboxylic acid amide] | 5.75 |
| C[C@H]1C(=O)N(CCCC(=O)N2CCCC(O)C2)CCN1C(=O)Nc1cccc(Cl)c1 (mixture of isomers) [Example 112, (S)-4-[4-((RS)-3-Hydroxy-piperidin-1-yl)-4-oxo-butyl]-2-methyl-3-oxo-piperazine-1-carboxylic acid (3-chloro-phenyl)-amide] | 5.49 |
| C[C@H]1C(=O)N(CCCC(=O)N2CCC3(CC3)[C@H](O)C2)CCN1c1ccc(C(F)(F)F)c(C(F)(F)F)c1 [Example 130, (S)-4-(3,4-Bis-trifluoromethyl-phenyl)-1-[4-((S)-4-hydroxy-6-aza-spiro[2.5]oct-6-yl)-4-oxo-butyl]-3-methyl-piperazin-2-one] | 7.43 |
| C[C@@H]1CN([C@H](CO)CCC(=O)N2CCC3(CC3)[C@H](O)C2)C(=O)CCN1c1ccc(C(F)(F)F)c(C(F)(F)F)c1 [Example 128, (R)-1-(3,4-bis-trifluoromethyl-phenyl)-4-[(S)-4-((S)-4-hydroxy-6-aza-spiro[2.5]oct-6-yl)-1-hydroxymethyl-4-oxo-butyl]-2-methyl-[1,4]diazepan-5-one] | 8.34 |
| COC(=O)[C@H](CCC(=O)N1CCC2(CC2)[C@H](O)C1)N1CCN(c2ccc(C(F)(F)F)c(Cl)c2)CCC1=O [Example 123, (S)-2-[4-(3-Chloro-4-trifluoromethyl-phenyl)-7-oxo-[1,4]diazepan-1-yl]-5-((S)-4-hydroxy-6-aza-spiro[2.5]oct-6-yl)-5-oxo-pentanoic acid methyl ester] | 7.20 |
| C[C@@H]1CN(CCC(=O)N2CCCCC2)C(=O)CCN1C(=O)/C=C/c1cccc(Cl)c1 [Example 101, (R)-1-[(E)-3-(3-Chloro-phenyl)-acryloyl]-2-methyl-4-(3-oxo-3-piperidin-1-yl-propyl)-[1,4]diazepan-5-one] | 5.61 |
| C[C@H]1C(=O)N([C@@H](CCC(=O)N2CCC3(CC3)[C@H](O)C2)C(=O)O)CCN1C(=O)Nc1ccc(C(F)(F)F)c(Cl)c1 [Example 140, (S)-2-[(S)-4-(3-Chloro-4-trifluoromethyl-phenylcarbamoyl)-3-methyl-2-oxo-piperazin-1-yl]-5-((S)-4-hydroxy-6-aza-spiro[2.5]oct-6-yl)-5-oxo-pentanoic acid] | 6.12 |
| COC(=O)[C@@H](CCC(=O)N1CCC2(CC2)[C@H](O)C1)N1CCN(C(=O)Nc2ccc(C(F)(F)F)c(Cl)c2)[C@@H](C)C1=O [Example 145, (R)-2-[(S)-4-(3-Chloro-4-trifluoromethyl-phenylcarbamoyl)-3-methyl-2-oxo-piperazin-1-yl]-5-((S)-4-hydroxy-6-aza-spiro[2.5]oct-6-yl)-5-oxo-pentanoic acid methyl ester] | 5.20 |
| C[C@H]1C(=O)N(CCCC(=O)N2CCC3(CC3)[C@H](O)C2)CCN1C(=O)Nc1cccc(Cl)c1 [Example 26, (S)-4-[4-((S)-4-Hydroxy-6-aza-spiro[2.5]oct-6-yl)-4-oxo-butyl]-2-methyl-3-oxo-piperazine-1-carboxylic acid (3-chloro-phenyl)-amide] | 7.74 |
| O=C1CC2(CCN(C(=O)CCN3CCN(C(=O)/C=C/c4ccc(Cl)c(Cl)c4)CCC3=O)CC2)C(=O)N1 [Example 93, 8-(3-{4-[(E)-3-(3,4-Dichloro-phenyl)-acryloyl]-7-oxo-[1,4]diazepan-1-yl}-propionyl)-2,8-diaza-spiro[4.5]decane-1,3-dione] | 5.94 |
| COC(=O)C(CC(=O)N(C)C)N1CCN(C(=O)/C=C/c2ccc(Cl)c(Cl)c2)CCC1=O (racemic) [Example 8, rac-(2-{4-[(E)-3-(3,4-Dichloro-phenyl)-acryloyl]-7-oxo-[1,4]diazepan-1-yl}-N,N-dimethyl-succinamic acid methyl ester)] | 6.06 |
| C[C@H]1C(=O)N(CCCC(=O)N2CCC3(CC3)[C@H](O)C2)[C@H](C(N)=O)CN1C(=O)Nc1ccc(C(F)(F)F)c(C(F)(F)F)c1 [Example 149, (3S,6S)-4-[4-((S)-4-Hydroxy-6-aza-spiro[2.5]oct-6-yl)-4-oxo-butyl]-6-methyl-5-oxo-piperazine-1,3-dicarboxylic acid 3-amide 1-[(3,4-bis-trifluoromethyl-phenyl)-amide]] | 8.66 |
| C[C@H]1C(=O)N(CCC(=O)N2CCCCC2)CCN1C(=O)Nc1ccc(Cl)c(Cl)c1 [Example 16, (S)-2-Methyl-3-oxo-4-(3-oxo-3-piperidin-1-yl-propyl)-piperazine-1-carboxylic acid (3,4-dichloro-phenyl)-amide] | 5.39 |
| (rac)-2-{4-[(E)-3-(3,4-Dichloro-phenyl)-acryloyl]-7-oxo-[1,4]diazepan-1-yl}-4-hydroxy-N,N-dimethyl-butyramide [Example 4] | 6.43 |
| O=C(/C=C/c1ccc(Cl)c(Cl)c1)N1CCC(=O)N(CCC(=O)N2CCC(O)(c3cccnc3)CC2)CC1 [Example 77, 1-[(E)-3-(3,4-Dichloro-phenyl)-acryloyl]-4-[3-(4′-hydroxy-3′,4′,5′,6′-tetrohydro-2′H-[3,4′]bipyridinyl-1′-yl)-3-oxo-propyl]-[1,4]diazepan-5-one] | 6.89 |
| C[C@@H]1CN(CCCC(=O)N2CCC3(CC3)[C@H](O)C2)C(=O)C=CN1c1ccc(Cl)c(C(F)(F)F)c1 [Example 125, (R)-1-(4-Chloro-3-trifluoromethyl-phenyl)-4-[4-((S)-4-hydroxy-6-aza-spiro[2.5]oct-6-yl)-4-oxo-butyl]-2-methyl-1,2,3,4-tetrahydro-[1,4]diazepin-5-one] | 5.56 |
| O=C1NCC2(CCN(C(=O)CCN3CCN(C(=O)/C=C/c4ccc(Cl)c(Cl)c4)CCC3=O)CC2)O1 [Example 90, 8-(3-{4-[(E)-3-(3,4-Dichloro-phenyl)-acryloyl]-7-oxo-[1,4]diazepan-1-yl}-propionyl)-1-oxa-3,8-diaza-spiro[4.5]decan-2-one] | 6.74 |
| C[C@H]1C(=O)N(C[C@H](O)CC(=O)N2CCC3(CC3)[C@H](O)C2)CCN1C(=O)Nc1ccc(OC(F)(F)F)c(Cl)c1 [Example 46, (S)-4-[(R)-2-hydroxy-4-((S)-4-hydroxy-6-aza-spiro[2.5]oct-6-yl)-4-oxo-butyl]-2-methyl-3-oxo-piperazine-1-carboxylic acid (3-chloro-4-trifluoromethoxy-phenyl)-amide] | 8.38 |
| C[C@H]1CCN(C(=O)CCN2CCN(C(=O)Nc3ccc(Cl)c(Cl)c3)[C@@H](C)C2=O)C[C@H]1O [Example 20, (S)-4-[3-((3S,4S)-3-Hydroxy-4-methyl-piperidin-1-yl)-3-oxo-propyl]-2-methyl-3-oxo-piperazine-1-carboxylic acid (3,4-dichloro-phenyl)-amide] | 5.97 |
| COCC(CC(=O)N1CCC2(CC2)[C@H](O)C1)N1CCN(C(=O)/C=C/c2cccc(Cl)c2)CCC1=O (stereo partly drawn) [Example 13, 1-[(E)-3-(3-Chloro-phenyl)-acryloyl]-4-[(R,S)-3-((S)-4-hydroxy-6-aza-spiro[2.5]oct-6-yl)-1-methoxymethyl-3-oxo-propyl]-[1,4]diazepan-5-one] | 6.11 |
